# According to ChEMBL document CHEMBL4184318, “Identification of Fast-Acting 2,6-Disubstituted Imidazopyridines That Are Efficacious in the in Vivo Humanized Plasmodium falciparum NODscidIL2Rγ null Mouse Model of Malaria” (J Med Chem, 2018):
# Key:
# [1] = system: Mus musculus; assay: Dose normalized AUC (0 to 23 hrs) in NOD-scid IL-2Rgamma-null mouse model engrafted with Plasmodium falciparum 3D7 infected human erythrocytes at 5 mg/kg administered via oral gavage by LC-MS/MS method; assay type: ADME, organism-based; conditions: in vivo
# [2] = AUC (0 to 23 hrs) in NOD-scid IL-2Rgamma-null mouse model engrafted with Plasmodium falciparum 3D7 infected human erythrocytes at 50 mg/kg administered via oral gavage by LC-MS/MS method; assay type: ADME, organism-based; parameters: dose 50 mg/kg, time < 23 hr, route oral; conditions: in vivo
# [3] = system: Mus musculus; assay: Dose normalized Cmax in NOD-scid IL-2Rgamma-null mouse model engrafted with Plasmodium falciparum 3D7 infected human erythrocytes at 5 mg/kg administered via oral gavage measured over 23 hrs post first dose by LC-MS/MS method; assay type: ADME, organism-based; conditions: in vivo
# [4] = Tmax in NOD-scid IL-2Rgamma-null mouse model engrafted with Plasmodium falciparum 3D7 infected human erythrocytes at 10 mg/kg administered via oral gavage measured over 23 hrs post first dose by LC-MS/MS method; assay type: ADME, organism-based; conditions: in vivo
# [5] = system: Mus musculus; assay: Dose normalized Cmax in NOD-scid IL-2Rgamma-null mouse model engrafted with Plasmodium falciparum 3D7 infected human erythrocytes at 50 mg/kg administered via oral gavage measured over 23 hrs post first dose by LC-MS/MS method; assay type: ADME, organism-based; conditions: in vivo
# [6] = Tmax in BALB/c mouse at 20 mg/kg administered via oral gavage as bolus dose by LC-MS/MS method; assay type: ADME, organism-based; conditions: in vivo
# [7] = Cmax in Sprague-Dawley rat at 3 mg/kg, iv administered as 2 mins of infusion by LC-MS/MS method; assay type: ADME, organism-based; parameters: dose 3 mg/kg, route intravenous; conditions: in vivo
# [8] = Tmax in NOD-scid IL-2Rgamma-null mouse model engrafted with Plasmodium falciparum 3D7 infected human erythrocytes at 50 mg/kg administered via oral gavage measured over 23 hrs post first dose by LC-MS/MS method; assay type: ADME, organism-based; conditions: in vivo
# [9] = Cmax in NOD-scid IL-2Rgamma-null mouse model engrafted with Plasmodium falciparum 3D7 infected human erythrocytes at 50 mg/kg administered via oral gavage measured over 23 hrs post first dose by LC-MS/MS method; assay type: ADME, organism-based; parameters: dose 50 mg/kg, route oral; conditions: in vivo
# [10] = system: Rattus norvegicus; assay: Dose normalized AUC (0 to infinity) in Sprague-Dawley rat at 15 mg/kg administered via oral gavage as bolus dose by LC-MS/MS method; assay type: ADME, organism-based; conditions: in vivo
# [11] = Cmax in NOD-scid IL-2Rgamma-null mouse model engrafted with Plasmodium falciparum 3D7 infected human erythrocytes at 10 mg/kg administered via oral gavage measured over 23 hrs post first dose by LC-MS/MS method; assay type: ADME, organism-based; parameters: dose 10 mg/kg, route oral; conditions: in vivo
# [12] = AUC (0 to 23 hrs) in NOD-scid IL-2Rgamma-null mouse model engrafted with Plasmodium falciparum 3D7 infected human erythrocytes at 25 mg/kg administered via oral gavage by LC-MS/MS method; assay type: ADME, organism-based; parameters: time < 23 hr, dose 25 mg/kg, route oral; conditions: in vivo
# [13] = Cmax in NOD-scid IL-2Rgamma-null mouse model engrafted with Plasmodium falciparum 3D7 infected human erythrocytes at 25 mg/kg administered via oral gavage measured over 23 hrs post first dose by LC-MS/MS method; assay type: ADME, organism-based; parameters: dose 25 mg/kg, route oral; conditions: in vivo
# [14] = system: Rattus norvegicus; assay: Dose normalized AUC (0 to infinity) in Sprague-Dawley rat at 3 mg/kg, iv administered as 2 mins of infusion by LC-MS/MS method; assay type: ADME, organism-based; conditions: in vivo
# [15] = system: Mus musculus; assay: Dose normalized Cmax in NOD-scid IL-2Rgamma-null mouse model engrafted with Plasmodium falciparum 3D7 infected human erythrocytes at 25 mg/kg administered via oral gavage measured over 23 hrs post first dose by LC-MS/MS method; assay type: ADME, organism-based; conditions: in vivo
# [16] = Tmax in NOD-scid IL-2Rgamma-null mouse model engrafted with Plasmodium falciparum 3D7 infected human erythrocytes at 5 mg/kg administered via oral gavage measured over 23 hrs post first dose by LC-MS/MS method; assay type: ADME, organism-based; conditions: in vivo
# [17] = Oral bioavailability in BALB/c mouse at 20 mg/kg administered via gavage as bolus dose by LC-MS/MS method; assay type: ADME, organism-based; conditions: in vivo
# [18] = Cmax in BALB/c mouse at 5 mg/kg, iv administered as 2 mins of infusion by LC-MS/MS method; assay type: ADME, organism-based; parameters: dose 5 mg/kg, route intravenous; conditions: in vivo
# [19] = system: Mus musculus; assay: Dose normalized AUC (0 to 23 hrs) in NOD-scid IL-2Rgamma-null mouse model engrafted with Plasmodium falciparum 3D7 infected human erythrocytes at 50 mg/kg administered via oral gavage by LC-MS/MS method; assay type: ADME, organism-based; conditions: in vivo
# [20] = Tmax in Sprague-Dawley rat at 15 mg/kg administered via oral gavage as bolus dose by LC-MS/MS method; assay type: ADME, organism-based; conditions: in vivo
# [21] = Volume of distribution in Sprague-Dawley rat at 3 mg/kg, iv administered as 2 mins of infusion by LC-MS/MS method; assay type: ADME, organism-based; conditions: in vivo
# [22] = Cmax in BALB/c mouse at 20 mg/kg administered via oral gavage as bolus dose by LC-MS/MS method; assay type: ADME, organism-based; parameters: dose 20 mg/kg, route oral; conditions: in vivo
# [23] = Cmax in NOD-scid IL-2Rgamma-null mouse model engrafted with Plasmodium falciparum 3D7 infected human erythrocytes at 5 mg/kg administered via oral gavage measured over 23 hrs post first dose by LC-MS/MS method; assay type: ADME, organism-based; parameters: dose 5 mg/kg, route oral; conditions: in vivo
# [24] = system: Mus musculus; assay: Dose normalized AUC (0 to 23 hrs) in NOD-scid IL-2Rgamma-null mouse model engrafted with Plasmodium falciparum 3D7 infected human erythrocytes at 10 mg/kg administered via oral gavage by LC-MS/MS method; assay type: ADME, organism-based; conditions: in vivo
# [25] = Kinetic solubility of the compound in FaSSIF at pH 6.5 after 20 hrs by shake flask method; assay type: physicochemical; conditions: read-out: Kinetic_solubility
# [26] = system: Mus musculus; assay: Dose normalized Cmax in NOD-scid IL-2Rgamma-null mouse model engrafted with Plasmodium falciparum 3D7 infected human erythrocytes at 10 mg/kg administered via oral gavage measured over 23 hrs post first dose by LC-MS/MS method; assay type: ADME, organism-based; conditions: in vivo
# [27] = Kinetic solubility of the compound in phosphate buffered saline at pH 6.5 after 20 hrs by shake flask method; assay type: physicochemical; conditions: read-out: Kinetic_solubility
# [28] = system: Mus musculus; assay: Dose normalized AUC (0 to infinity) in BALB/c mouse at 5 mg/kg, iv administered as 2 mins of infusion by LC-MS/MS method; assay type: ADME, organism-based; conditions: in vivo
# [29] = system: Mus musculus; assay: Dose normalized AUC (0 to infinity) in BALB/c mouse at 20 mg/kg administered via oral gavage as bolus dose by LC-MS/MS method; assay type: ADME, organism-based; conditions: in vivo
# [30] = Drug metabolism in iv or po dosed BALB/c mouse plasma assessed as metabolism at cyclohexane ring by LC-MS/MS method; assay type: ADME, organism-based; conditions: in vivo
# [31] = Kinetic solubility of the compound in HCl at pH 2 after 20 hrs by shake flask method; assay type: physicochemical; conditions: read-out: Kinetic_solubility
# [32] = Volume of distribution in BALB/c mouse at 5 mg/kg, iv administered as 2 mins of infusion by LC-MS/MS method; assay type: ADME, organism-based; conditions: in vivo
# [33] = Cmax in Sprague-Dawley rat at 15 mg/kg administered via oral gavage as bolus dose by LC-MS/MS method; assay type: ADME, organism-based; parameters: dose 15 mg/kg, route oral; conditions: in vivo
# [34] = Oral bioavailability in Sprague-Dawley rat at 15 mg/kg administered via gavage as bolus dose by LC-MS/MS method; assay type: ADME, organism-based; conditions: in vivo
# [35] = system: Mus musculus; assay: Dose normalized AUC (0 to 23 hrs) in NOD-scid IL-2Rgamma-null mouse model engrafted with Plasmodium falciparum 3D7 infected human erythrocytes at 25 mg/kg via oral gavage by LC-MS/MS method; assay type: ADME, organism-based; conditions: in vivo
# [36] = AUC (0 to 23 hrs) in NOD-scid IL-2Rgamma-null mouse model engrafted with Plasmodium falciparum 3D7 infected human erythrocytes at 5 mg/kg administered via oral gavage by LC-MS/MS method; assay type: ADME, organism-based; parameters: dose 5 mg/kg, time < 23 hr, route oral; conditions: in vivo
# [37] = Tmax in NOD-scid IL-2Rgamma-null mouse model engrafted with Plasmodium falciparum 3D7 infected human erythrocytes at 25 mg/kg administered via oral gavage measured over 23 hrs post first dose by LC-MS/MS method; assay type: ADME, organism-based; conditions: in vivo
# [38] = AUC (0 to 23 hrs) in NOD-scid IL-2Rgamma-null mouse model engrafted with Plasmodium falciparum 3D7 infected human erythrocytes at 10 mg/kg administered via oral gavage by LC-MS/MS method; assay type: ADME, organism-based; parameters: dose 10 mg/kg, time < 23 hr, route oral; conditions: in vivo
# [39] = Drug metabolism in po dosed BALB/c mouse plasma assessed as glucuronidation of pyridine ring by LC-MS/MS method; assay type: ADME, organism-based; conditions: in vivo
# [40] = Drug metabolism in po dosed BALB/c mouse plasma assessed as oxidation of pyridine ring by LC-MS/MS method; assay type: ADME, organism-based; conditions: in vivo
# [41] = Drug metabolism in po dosed BALB/c mouse plasma assessed as sulfation of pyridine ring by LC-MS/MS method; assay type: ADME, organism-based; conditions: in vivo
smiles,measurement,setting,value
FC1(F)CCC(c2nc3cnc(Nc4ccc(C(F)(F)F)cn4)cc3[nH]2)CC1,AUC/dose,[1],0.876 µg·h/mL/mg/kg
same,AUC(0-t) at 23 h,[2],88000 ng·h/mL
same,Cmax/dose,[3],0.086 µg/mL/mg/kg
same,Tmax,[4],0.5 to 4 h
same,Cmax/dose,[5],0.173 µg/mL/mg/kg
same,Tmax,[6],1 h
same,Cmax,[7],2.6 µM
same,Tmax,[8],0.25 to 2 h
same,Cmax,[9],8650 ng/mL
same,AUC/dose,[10],342 µM·min
same,Cmax,[11],927 ng/mL
same,AUC(0-t) at 23 h,[12],46200 ng·h/mL
same,Cmax,[13],3340 ng/mL
same,AUC/dose,[14],286 µM·min
same,Cmax/dose,[15],0.167 µg/mL/mg/kg
same,Tmax,[16],0.5 to 2 h
same,bioavailability,[17],51%
same,Cmax,[18],5.1 µM
same,AUC/dose,[19],1.759 µg·h/mL/mg/kg
same,Tmax,[20],3 h
same,Vd,[21],3 L/kg
same,Cmax,[22],9.6 µM
same,Cmax,[23],431 ng/mL
same,AUC/dose,[24],0.867 µg·h/mL/mg/kg
same,solubility kinetic at 20 h,[25],93 µM
same,Cmax/dose,[26],0.093 µg/mL/mg/kg
same,solubility kinetic at 20 h,[27],99 µM
same,AUC/dose,[28],1078 µM·min
same,AUC/dose,[29],2178 µM·min
same,Drug metabolism,[30],Metabolite_Notdetected
same,solubility kinetic at 20 h,[31],199 µM
same,Vd,[32],1.5 L/kg
same,Cmax,[33],1.2 µM
same,bioavailability,[34],24%
same,AUC/dose,[35],2.311 µg·h/mL/mg/kg
same,AUC(0-t) at 23 h,[36],4380 ng·h/mL
same,Tmax,[37],0.5 to 23 h
same,AUC(0-t) at 23 h,[38],8670 ng·h/mL
FC(F)(F)c1cccc(-c2nc3cnc(Nc4ccccn4)cc3[nH]2)c1,Drug metabolism,[39],Metabolite_Detected
same,Drug metabolism,[40],Metabolite_Detected
same,Drug metabolism,[41],Metabolite_Detected
same,solubility kinetic at 20 h,[27],< 5 µM
same,solubility kinetic at 20 h,[31],21 µM
